Test results: patent US8048825B2, “Haloalkylsulfonanilide derivatives or salt thereof, herbicide comprising the derivatives as active ingredient, and use of the herbicide” (Nihon Nohyaku Co., Ltd., priority 2006, dated 2011)

Tests used:
Type in all cases: in vivo
Lindernia procumbens [1] = test: Herbicidal effect on paddy field weeds of post-emergence stage (Post), Test Example 2; settings: one-leaf stage, 1000 g/ha as active ingredient, examined after 21 days
Text: (§1) Criteria for herbicidal efficacy (growth inhibiting degree) and phytotoxicity. • 5 . . . 100% herbicidal effect, phytotoxicity. • 4 . . . 90%-99% herbicidal effect, phytotoxicity. • 3 . . . 70%-89% herbicidal effect, phytotoxicity. • 2 . . . 40%-69% herbicidal effect, phytotoxicity. • 1 . . . 1%-39% herbicidal effect, phytotoxicity. • 0 . . . 0% herbicidal effect, phytotoxicity.
(§2) 75 cm^2 plastic pots were filled with the soil (clay loam). Seeds of Scirpus juncoides and Echinochloa crus-galli, paddy weeds, were planted, and they were covered with 75 cm^3 of soil mixed with seeds of Lindernia procumbens and then filled with water depth of 5 cm and they were brought up in a greenhouse. When the test plants were at one-leaf stage, predetermined effective dosage (1000 g/ha as an active ingredient) of formulations comprising a compound of the present invention as an active ingredient was applied to the pot water. Then, they were brought up in a greenhouse and the herbicidal efficacy was examined after 21 days from the treatment by comparing with the result of an untreated group according to the criteria of Test Example 1. In the table, “-” means that the test was not performed.

Scirpus juncoides [2] = test: as above; settings: one-leaf stage, 1000 g/ha as active ingredient, examined after 21 days
Text: as §1, §2

Lindernia procumbens [3] = test: Herbicidal efficacy on paddy field weeds of pre-emergence stage (Pre), Test Example 1; settings: 1000 g/ha as active ingredient, examined after 21 days
Description: (§3) 75 cm^2 plastic pots were filled with the soil (clay loam). Seeds of Scirpus juncoides, a paddy weed, were planted, and they were covered with 75 cm^3 of soil mixed with seeds of Lindernia procumbens and then filled with water depth of 5 cm. Next day, predetermined effective dosage (1000 g/ha as an active ingredient) of formulations comprising a compound of the present invention as an active ingredient which were prepared following Formulation Examples 1 to 4 was diluted with water and applied dropwise to the surface of the water. Then, they were brought up in a greenhouse and the herbicidal effect was examined after 21 days from the treatment by comparing with the result of an untreated group according to the following criteria. In the table, “-” means that the test was not performed.
as §1

Scirpus juncoides [4] = test: as above; settings: 1000 g/ha as active ingredient, examined after 21 days
Description: as §3, §1

Structure (SMILES): O=C1OC(c2ccccc2)(C2CC2)CCN1Cc1ccccc1NS(=O)(=O)C(F)(F)F (stereo not drawn) [Compound 1-183]
- Lindernia procumbens post (herbicidal effect) (Lindernia procumbens [1]): 4 (90%-99% herbicidal effect, phytotoxicity)
- Scirpus juncoides post (herbicidal effect) (Scirpus juncoides [2]): 4 (90%-99% herbicidal effect, phytotoxicity)
- Lindernia procumbens pre (herbicidal effect) (Lindernia procumbens [3]): 4 (90%-99% herbicidal effect, phytotoxicity)
- Scirpus juncoides pre (herbicidal effect) (Scirpus juncoides [4]): 4 (90%-99% herbicidal effect, phytotoxicity)

Structure (SMILES): CC1(c2c(F)cccc2F)CCN(Cc2ccccc2NS(=O)(=O)C(F)(F)F)C(=O)O1 (racemic) [Compound 1-439]
- Lindernia procumbens post (herbicidal effect) (Lindernia procumbens [1]): 5 (100% herbicidal effect, phytotoxicity)
- Scirpus juncoides post (herbicidal effect) (Scirpus juncoides [2]): 4 (90%-99% herbicidal effect, phytotoxicity)
- Lindernia procumbens pre (herbicidal effect) (Lindernia procumbens [3]): 5 (100% herbicidal effect, phytotoxicity)
- Scirpus juncoides pre (herbicidal effect) (Scirpus juncoides [4]): 5 (100% herbicidal effect, phytotoxicity)

Structure (SMILES): O=C1OC(c2ccccc2C(F)(F)F)CCN1Cc1ccccc1NS(=O)(=O)C(F)(F)F (stereo not drawn) [Compound 1-294]
- Lindernia procumbens post (herbicidal effect) (Lindernia procumbens [1]): 5 (100% herbicidal effect, phytotoxicity)
- Scirpus juncoides post (herbicidal effect) (Scirpus juncoides [2]): 4 (90%-99% herbicidal effect, phytotoxicity)
- Lindernia procumbens pre (herbicidal effect) (Lindernia procumbens [3]): 5 (100% herbicidal effect, phytotoxicity)
- Scirpus juncoides pre (herbicidal effect) (Scirpus juncoides [4]): 4 (90%-99% herbicidal effect, phytotoxicity)

Structure (SMILES): CC(C)(C)COC(=O)N(c1ccccc1CN1CCC(C2CC2)(C2CC2)OC1=O)S(=O)(=O)C(F)(F)F [Compound 1-155]
- Lindernia procumbens post (herbicidal effect) (Lindernia procumbens [1]): 4 (90%-99% herbicidal effect, phytotoxicity)
- Scirpus juncoides post (herbicidal effect) (Scirpus juncoides [2]): 4 (90%-99% herbicidal effect, phytotoxicity)
- Lindernia procumbens pre (herbicidal effect) (Lindernia procumbens [3]): 4 (90%-99% herbicidal effect, phytotoxicity)
- Scirpus juncoides pre (herbicidal effect) (Scirpus juncoides [4]): 4 (90%-99% herbicidal effect, phytotoxicity)

Structure (SMILES): CC1(c2ccccc2C(F)(F)F)CCN(Cc2ccccc2NS(=O)(=O)C(F)(F)F)C(=O)O1 (stereo not drawn) [Compound 1-393]
- Lindernia procumbens post (herbicidal effect) (Lindernia procumbens [1]): 5 (100% herbicidal effect, phytotoxicity)
- Scirpus juncoides post (herbicidal effect) (Scirpus juncoides [2]): 4 (90%-99% herbicidal effect, phytotoxicity)
- Lindernia procumbens pre (herbicidal effect) (Lindernia procumbens [3]): 5 (100% herbicidal effect, phytotoxicity)
- Scirpus juncoides pre (herbicidal effect) (Scirpus juncoides [4]): 5 (100% herbicidal effect, phytotoxicity)

Structure (SMILES): COC(=O)N(c1ccccc1CN1CCC(C)(c2ccccc2F)OC1=O)S(=O)(=O)C(F)(F)F (racemic) [Compound 1-429]
- Lindernia procumbens post (herbicidal effect) (Lindernia procumbens [1]): 5 (100% herbicidal effect, phytotoxicity)
- Scirpus juncoides post (herbicidal effect) (Scirpus juncoides [2]): 4 (90%-99% herbicidal effect, phytotoxicity)
- Lindernia procumbens pre (herbicidal effect) (Lindernia procumbens [3]): 5 (100% herbicidal effect, phytotoxicity)
- Scirpus juncoides pre (herbicidal effect) (Scirpus juncoides [4]): 4 (90%-99% herbicidal effect, phytotoxicity)

Structure (SMILES): O=C1OC(c2ccc(Cl)cc2)(C2CC2)CCN1Cc1ccccc1NS(=O)(=O)C(F)(F)F (stereo not drawn) [Compound 1-195]
- Lindernia procumbens post (herbicidal effect) (Lindernia procumbens [1]): 4 (90%-99% herbicidal effect, phytotoxicity)
- Scirpus juncoides post (herbicidal effect) (Scirpus juncoides [2]): 4 (90%-99% herbicidal effect, phytotoxicity)
- Lindernia procumbens pre (herbicidal effect) (Lindernia procumbens [3]): 4 (90%-99% herbicidal effect, phytotoxicity)
- Scirpus juncoides pre (herbicidal effect) (Scirpus juncoides [4]): 4 (90%-99% herbicidal effect, phytotoxicity)

Structure (SMILES): CC(C)(C)COC(=O)N(c1ccccc1CN1CCC(C)(C2(C)CC2)OC1=O)S(=O)(=O)C(F)(F)F (stereo not drawn) [Compound 1-377]
- Lindernia procumbens post (herbicidal effect) (Lindernia procumbens [1]): 5 (100% herbicidal effect, phytotoxicity)
- Scirpus juncoides post (herbicidal effect) (Scirpus juncoides [2]): 4 (90%-99% herbicidal effect, phytotoxicity)
- Lindernia procumbens pre (herbicidal effect) (Lindernia procumbens [3]): 5 (100% herbicidal effect, phytotoxicity)
- Scirpus juncoides pre (herbicidal effect) (Scirpus juncoides [4]): 4 (90%-99% herbicidal effect, phytotoxicity)

Structure (SMILES): O=C1OC(c2ccccc2)(C(F)(F)F)CCN1Cc1ccccc1NS(=O)(=O)C(F)(F)F (stereo not drawn) [Compound 1-228]
- Lindernia procumbens post (herbicidal effect) (Lindernia procumbens [1]): 5 (100% herbicidal effect, phytotoxicity)
- Scirpus juncoides post (herbicidal effect) (Scirpus juncoides [2]): 4 (90%-99% herbicidal effect, phytotoxicity)
- Lindernia procumbens pre (herbicidal effect) (Lindernia procumbens [3]): 5 (100% herbicidal effect, phytotoxicity)
- Scirpus juncoides pre (herbicidal effect) (Scirpus juncoides [4]): 5 (100% herbicidal effect, phytotoxicity)
